Measured values taken from ChEMBL document CHEMBL1132423, “Diethylcarbamoylating/nitroxylating agents as dual action inhibitors of aldehyde dehydrogenase: a disulfiram-cyanamide merger” (J Med Chem, 1999).

Target: T1, Aldehyde dehydrogenase 1A1 (Rattus norvegicus) (UniProt P51647)
T1 sequence (whole entry): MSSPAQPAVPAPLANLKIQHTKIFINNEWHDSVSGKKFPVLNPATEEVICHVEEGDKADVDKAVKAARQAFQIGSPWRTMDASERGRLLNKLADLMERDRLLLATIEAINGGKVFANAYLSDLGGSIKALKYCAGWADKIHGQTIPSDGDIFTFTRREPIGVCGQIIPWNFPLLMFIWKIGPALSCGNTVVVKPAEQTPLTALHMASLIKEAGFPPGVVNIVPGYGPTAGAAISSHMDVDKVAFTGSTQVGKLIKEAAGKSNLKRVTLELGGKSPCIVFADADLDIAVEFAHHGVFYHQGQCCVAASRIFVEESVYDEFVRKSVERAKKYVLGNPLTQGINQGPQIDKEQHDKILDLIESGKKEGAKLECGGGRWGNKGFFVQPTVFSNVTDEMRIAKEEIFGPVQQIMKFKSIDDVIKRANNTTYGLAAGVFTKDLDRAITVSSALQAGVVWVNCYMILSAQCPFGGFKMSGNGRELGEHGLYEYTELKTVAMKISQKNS
Assay: Percent inhibition of rat hepatic mitochondrial […] dehydrogenase
Conditions: concentration not given here

CCOC(=O)N(OC(=O)N(CC)CC)S(=O)(=O)c1ccccc1
inhibition: > 70%
